Test results: patent US10632119B2, “Fused bicyclic 2,4-diaminopyrimidine derivative as a dual ALK and FAK inhibitor” (priority 2012, dated 2020)
In brackets after ≈: the same amount, converted by molar mass. Like-named read-outs stand apart in the source and are kept apart here.

Key:
[1] = In vitro metabolic stability, mouse; type: in vitro ADME; details: mouse (M); read-out: In vitro metabolic stability t1/2
[2] = system: Sup-M2 ALCL tumor xenografts; test: Anti-tumor efficacy, NPM-ALK positive Sup-M2 ALCL xenograft; details: for anti-tumor efficacy: 12 days
Method: (§1) Anti-Tumor Efficacy Studies—General Protocol
(§2) The tumor volumes were then calculated with the formula of 0.5236*L*W*(L+W)/2.
(§3) Anti-Tumor Efficacy in NPM-ALK Positive Sup-M2 and Karpas-299 ALCL Tumor Xenograft Models in Mice

[3] = Protein binding, dog; type: in vitro ADME; details: dog (D)
[4] = system: CYP3A4; test: CYP3A4 induction in vitro; details: @ 10 μM
[5] = Rat bioavailability; details: in vivo, po
[6] = molecular target: Muscarinic M3 (Homo sapiens, UniProt P20309); test: Receptor selectivity (Cerep); type: binding
[7] = molecular target: Muscarinic M4 (Homo sapiens, UniProt P08173); test: Receptor selectivity (Cerep); type: binding
[8] = molecular target: CYP 1A2 (Homo sapiens, UniProt P05177); test: CYP inhibition; type: in vitro ADME
[9] = Equilibrium solubility; type: physicochemical; details: thermodynamic from solid
[10] = In vitro metabolic stability, human; type: in vitro ADME; details: human (H); read-out: In vitro metabolic stability t1/2
[11] = Monkey bioavailability; details: in vivo, po
[12] = molecular target: CYP 2D6 (Homo sapiens, UniProt P10635); test: CYP inhibition; type: in vitro ADME
[13] = 10 days
[14] = system: Karpas-299 tumor xenografts; details: for anti-tumor efficacy: amorphous HCl salt
Method: as §1, §2, §3

[15] = molecular target: hERG (Homo sapiens, UniProt Q12809); test: hERG patch clamp; type: cell-based
[16] = Mouse bioavailability; type: in vivo
[17] = in vivo; details: both, rat, po
Method: Animals were dosed via oral gavage.
Assessment of toxicity was based on mortality, clinical observations, body weights, body weight changes, food consumption, ophthalmic examinations, and clinical and anatomic pathology. Blood samples were collected for toxicokinetic evaluations.

[18] = molecular target: Muscarinic M2 (Homo sapiens, UniProt P08172); test: Receptor selectivity (Cerep); type: binding
[19] = molecular target: Muscarinic M1 (Homo sapiens, UniProt P11229); test: Receptor selectivity (Cerep); type: binding
[20] = In vitro metabolic stability, rat; type: in vitro ADME; details: rat (R); read-out: In vitro metabolic stability t1/2
[21] = system: NCI-H2228 NSCLC tumor xenografts; test: Anti-tumor activity, EML4-ALK positive NCI-H2228 NSCLC xenograft
Excerpt: Anti-Tumor Activity in EML4-ALK Positive (NCI-H2228 and NCI-H3122) NSCLC Tumor Xenografts in Mice with Oral Dosing
Generation of EML4-ALK-positive and EML4-ALK-negative NSCLC Subcutaneous Tumor Xenografts in Scid Mice Female Scid/Beige mice (6-8 weeks, Taconic, Hudson. N.Y.) were maintained 5/cage in microisolator units on a standard laboratory diet (Teklad Labchow, Harlan Teklad, Madison, Wis.). Animals were housed under humidity- and temperature controlled conditions and the light/dark cycle was set at 12-hour intervals. Mice were quarantined at least 1 week prior to experimental manipulation. […] The mice were monitored until the tumor xenograft volumes reached 200-500 mm3.
The length (L) and width (W) of each tumor were measured with vernier calipers and the mouse body weight was determined every two to three days. […] Percent tumor growth inhibition (% TGI) was calculated as follows: (tumor volume of the control group at end of treatment—tumor volume of the treated group at the end of treatment)/tumor volume of the control group at the end of treatment. […] Complete tumor regression (CR) was defined as the tumor volume of the treated group at the end of treatment being less than 5% of the tumor volume of the treated group as the start of treatment. Statistical analyses of tumor volumes and mouse body weights were carried out with the Mann-Whitney Rank Sum Test. Plasma and tumor samples were obtained at 2 hours post final dose at each dose level, and the compound levels in plasma and tumor lysates were measured by LC-MS/MS

[22] = system: Detroit 562 HNSCC xenografts
Excerpt: (§4) Anti-Tumor Efficacy Studies in Human Tumor Xenografts of Hormone-Independent Prostate Carcinoma, NSCL Carcinoma and HNSC Carcinoma
(§5) The human prostate carcinoma cell lines, CWR22 and PC3, and human head and neck squamous cell carcinoma cell line Detroit 562 were obtained from American Tissue Culture Collection (ATCC, Manassas, Va.). […] Human non-small cell lung cancer cell line HCC-827 and human breast cancer cell line BT474 were also purchased from the ATCC (Manassas, Va.) and cultured in RPMI (Cat #10-040, Mediatech Inc, Manassas, Va.) with 10% FBS. The rabbit phospho-FAK (Tyr397) (Cat #3283) and FAK antibodies (Cat #3285) were purchased from Cell Signaling Technology (Beverly, Mass.).
(§6) The mice were then monitored daily.
as §2

[23] = system: PC-3 prostate tumor xenografts
Excerpt: as §4, §5, §6, §2

[24] = system: HCC-827 human NSCL carcinoma xenografts
Excerpt: as §4, §5, §6, §2

[25] = Caco-2 permeability; type: in vitro ADME; details: human
[26] = molecular target: Histamine H2 (Homo sapiens, UniProt P25021); test: Receptor selectivity (Cerep); type: binding
[27] = molecular target: CYP 2C19 (Homo sapiens, UniProt P33261); test: CYP inhibition; type: in vitro ADME
[28] = Protein binding, mouse; type: in vitro ADME; details: mouse (M)
[29] = molecular target: CYP 2C9 (Homo sapiens, UniProt P11712); test: CYP inhibition; type: in vitro ADME
[30] = bid or qd oral dosing at 10 and 30 mg/kg
[31] = four weeks of additional treatment at 55 mg/kg qd po

Sequence of CYP 2D6 (P10635 whole entry): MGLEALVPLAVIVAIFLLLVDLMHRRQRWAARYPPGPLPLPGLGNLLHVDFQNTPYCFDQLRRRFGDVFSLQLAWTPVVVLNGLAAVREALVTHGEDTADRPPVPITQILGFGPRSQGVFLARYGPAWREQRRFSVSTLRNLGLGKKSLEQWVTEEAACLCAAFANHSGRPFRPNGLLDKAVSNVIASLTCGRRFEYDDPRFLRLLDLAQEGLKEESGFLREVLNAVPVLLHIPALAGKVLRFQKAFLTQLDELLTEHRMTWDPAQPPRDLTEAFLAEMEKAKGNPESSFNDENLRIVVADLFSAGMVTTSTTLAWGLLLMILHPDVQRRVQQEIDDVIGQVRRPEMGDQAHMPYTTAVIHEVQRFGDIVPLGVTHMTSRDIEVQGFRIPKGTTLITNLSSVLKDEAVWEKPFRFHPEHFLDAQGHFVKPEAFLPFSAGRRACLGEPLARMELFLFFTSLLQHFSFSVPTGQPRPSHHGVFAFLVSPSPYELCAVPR
Sequence of CYP 2C19 (P33261 whole entry): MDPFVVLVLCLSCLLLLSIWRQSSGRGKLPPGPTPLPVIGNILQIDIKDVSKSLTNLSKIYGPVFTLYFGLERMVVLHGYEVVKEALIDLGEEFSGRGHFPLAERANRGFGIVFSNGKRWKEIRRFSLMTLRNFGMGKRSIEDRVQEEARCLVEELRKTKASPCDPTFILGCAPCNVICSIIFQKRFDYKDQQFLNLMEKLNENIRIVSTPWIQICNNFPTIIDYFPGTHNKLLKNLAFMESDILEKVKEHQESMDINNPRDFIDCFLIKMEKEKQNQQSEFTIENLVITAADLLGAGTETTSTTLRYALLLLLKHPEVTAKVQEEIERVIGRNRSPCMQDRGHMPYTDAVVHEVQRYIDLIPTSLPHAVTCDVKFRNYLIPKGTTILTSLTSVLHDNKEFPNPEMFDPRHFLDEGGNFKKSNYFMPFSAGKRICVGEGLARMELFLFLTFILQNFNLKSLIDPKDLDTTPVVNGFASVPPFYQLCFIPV
Sequence of Muscarinic M1 (P11229 whole entry): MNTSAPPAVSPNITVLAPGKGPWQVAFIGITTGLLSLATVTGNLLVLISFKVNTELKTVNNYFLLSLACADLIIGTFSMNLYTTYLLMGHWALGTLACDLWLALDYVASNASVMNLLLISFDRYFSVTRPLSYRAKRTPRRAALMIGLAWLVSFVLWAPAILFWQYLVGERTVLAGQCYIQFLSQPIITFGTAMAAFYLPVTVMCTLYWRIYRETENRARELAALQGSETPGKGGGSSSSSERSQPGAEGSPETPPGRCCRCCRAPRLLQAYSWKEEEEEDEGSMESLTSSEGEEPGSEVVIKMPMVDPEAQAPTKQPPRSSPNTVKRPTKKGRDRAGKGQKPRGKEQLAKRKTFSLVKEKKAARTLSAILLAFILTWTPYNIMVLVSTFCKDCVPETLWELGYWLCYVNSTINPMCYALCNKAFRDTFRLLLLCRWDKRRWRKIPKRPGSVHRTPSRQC
Sequence of Histamine H2 (P25021 whole entry): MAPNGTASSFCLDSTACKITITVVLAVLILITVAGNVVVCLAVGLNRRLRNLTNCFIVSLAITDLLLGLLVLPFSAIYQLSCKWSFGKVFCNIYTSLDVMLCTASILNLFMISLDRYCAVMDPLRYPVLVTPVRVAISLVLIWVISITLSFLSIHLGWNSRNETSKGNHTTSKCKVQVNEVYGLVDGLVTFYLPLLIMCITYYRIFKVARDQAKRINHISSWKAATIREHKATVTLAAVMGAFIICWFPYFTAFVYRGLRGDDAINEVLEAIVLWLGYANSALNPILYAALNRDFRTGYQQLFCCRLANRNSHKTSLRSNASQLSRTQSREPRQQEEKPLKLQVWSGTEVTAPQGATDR
Sequence of Muscarinic M3 (P20309 whole entry): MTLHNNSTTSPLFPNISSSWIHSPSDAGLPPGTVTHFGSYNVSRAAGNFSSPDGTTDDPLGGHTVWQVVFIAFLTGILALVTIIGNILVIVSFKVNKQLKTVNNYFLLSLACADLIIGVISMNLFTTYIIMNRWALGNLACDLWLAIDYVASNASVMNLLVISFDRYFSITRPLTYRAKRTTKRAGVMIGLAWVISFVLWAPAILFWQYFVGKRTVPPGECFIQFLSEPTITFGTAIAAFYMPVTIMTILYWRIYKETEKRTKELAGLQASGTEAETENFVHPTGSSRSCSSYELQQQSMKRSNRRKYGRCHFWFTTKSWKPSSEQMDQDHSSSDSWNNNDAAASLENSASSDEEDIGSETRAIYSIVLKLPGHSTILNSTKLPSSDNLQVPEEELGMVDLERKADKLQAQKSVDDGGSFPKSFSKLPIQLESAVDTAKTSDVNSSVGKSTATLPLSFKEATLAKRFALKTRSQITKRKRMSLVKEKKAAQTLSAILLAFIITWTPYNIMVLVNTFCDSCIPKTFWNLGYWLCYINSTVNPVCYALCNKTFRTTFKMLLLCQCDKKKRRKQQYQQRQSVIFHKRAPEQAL
Sequence of CYP 2C9 (P11712 whole entry): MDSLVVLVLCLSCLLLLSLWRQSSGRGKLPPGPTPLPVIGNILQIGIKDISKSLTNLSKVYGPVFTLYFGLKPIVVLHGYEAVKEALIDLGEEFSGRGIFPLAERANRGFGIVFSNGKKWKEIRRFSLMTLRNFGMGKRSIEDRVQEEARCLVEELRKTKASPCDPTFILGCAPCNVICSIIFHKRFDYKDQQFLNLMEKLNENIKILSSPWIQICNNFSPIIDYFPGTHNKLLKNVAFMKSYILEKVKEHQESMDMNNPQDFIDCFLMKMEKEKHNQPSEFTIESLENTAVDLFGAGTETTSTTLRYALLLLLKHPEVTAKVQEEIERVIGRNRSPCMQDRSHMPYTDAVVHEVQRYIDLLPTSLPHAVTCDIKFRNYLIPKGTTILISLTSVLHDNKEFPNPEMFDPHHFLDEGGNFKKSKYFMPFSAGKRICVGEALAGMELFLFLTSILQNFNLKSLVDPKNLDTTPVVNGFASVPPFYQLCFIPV
Sequence of Muscarinic M4 (P08173 whole entry): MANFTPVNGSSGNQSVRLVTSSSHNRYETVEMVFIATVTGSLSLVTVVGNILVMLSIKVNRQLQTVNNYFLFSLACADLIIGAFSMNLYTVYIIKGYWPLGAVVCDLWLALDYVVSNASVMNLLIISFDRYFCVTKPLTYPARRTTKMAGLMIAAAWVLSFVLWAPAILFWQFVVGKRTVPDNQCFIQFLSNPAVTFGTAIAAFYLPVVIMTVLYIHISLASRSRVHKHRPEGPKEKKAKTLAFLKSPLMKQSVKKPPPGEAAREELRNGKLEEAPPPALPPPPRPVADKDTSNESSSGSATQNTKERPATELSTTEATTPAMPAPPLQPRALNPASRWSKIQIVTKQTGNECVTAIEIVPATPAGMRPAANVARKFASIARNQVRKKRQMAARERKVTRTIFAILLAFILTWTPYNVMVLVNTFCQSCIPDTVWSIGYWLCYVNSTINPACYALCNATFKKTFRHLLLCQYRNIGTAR
Sequence of CYP 1A2 (P05177 whole entry): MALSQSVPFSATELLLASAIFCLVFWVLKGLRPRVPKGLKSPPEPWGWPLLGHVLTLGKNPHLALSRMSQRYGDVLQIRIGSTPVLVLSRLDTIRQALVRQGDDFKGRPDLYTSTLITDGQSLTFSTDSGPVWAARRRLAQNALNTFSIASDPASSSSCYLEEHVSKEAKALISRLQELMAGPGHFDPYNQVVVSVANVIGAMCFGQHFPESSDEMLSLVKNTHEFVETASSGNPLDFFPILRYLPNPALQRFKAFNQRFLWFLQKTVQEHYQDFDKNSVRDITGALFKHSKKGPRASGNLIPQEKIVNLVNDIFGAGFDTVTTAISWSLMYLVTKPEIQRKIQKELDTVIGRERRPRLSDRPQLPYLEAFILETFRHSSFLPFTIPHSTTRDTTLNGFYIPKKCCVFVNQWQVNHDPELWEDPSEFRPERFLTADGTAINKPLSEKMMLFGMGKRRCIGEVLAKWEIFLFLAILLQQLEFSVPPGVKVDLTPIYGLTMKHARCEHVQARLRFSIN
Sequence of Muscarinic M2 (P08172 whole entry): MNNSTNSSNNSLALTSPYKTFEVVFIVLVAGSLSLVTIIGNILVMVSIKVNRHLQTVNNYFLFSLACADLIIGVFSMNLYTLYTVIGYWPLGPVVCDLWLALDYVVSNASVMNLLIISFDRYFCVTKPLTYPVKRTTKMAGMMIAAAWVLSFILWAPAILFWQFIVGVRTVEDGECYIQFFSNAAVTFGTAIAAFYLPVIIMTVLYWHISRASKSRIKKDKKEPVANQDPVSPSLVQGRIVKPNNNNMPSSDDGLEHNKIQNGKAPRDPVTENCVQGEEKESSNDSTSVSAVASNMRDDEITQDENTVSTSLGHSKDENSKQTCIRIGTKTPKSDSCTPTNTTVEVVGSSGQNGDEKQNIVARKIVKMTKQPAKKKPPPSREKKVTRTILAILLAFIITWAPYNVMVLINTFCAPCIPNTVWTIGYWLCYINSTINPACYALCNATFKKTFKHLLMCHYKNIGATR

## CNC(=O)c1ccccc1Nc1nc(Nc2ccc3c(c2OC)CCC[C@H](N2CCN(CCO)CC2)C3)ncc1Cl [CEP-37440, 2-[[5-chloro-2-[[(6S)-6-[4-(2-hydroxyethyl)piperazin-1-yl]-1-methoxy-6,7,8,9-tetrahydro-5H-benzo[7]annulen-2-yl]amino]pyrimidin-4-yl]amino]-N-methyl-benzamide]
[1]
  half-life: > 40 min
[2]; 10 mg/kg or lower, bid, po
  anti-tumor efficacy: No significant anti-tumor activity
[2]; 30 mg/kg bid po
  anti-tumor efficacy: complete or near complete tumor regression
[2]; 30 mg/kg, qd, po
  anti-tumor efficacy: partial tumor regression
[2]; 55 mg/kg qd po
  anti-tumor efficacy: complete or near complete tumor regression
[2]; all dosing regimens
  tolerability, body weight: well tolerated with no overt toxicity and no significant compound-related body weight loss
[2]; [30]
  plasma level at 2 h post final dosing versus 2 h post single oral dose: 2-3 fold
  tumor level at 2 h post final dosing versus 2 h post single oral dose: more than 10 fold
[3]
  Protein binding: 94 % bound
[4]
  CYP3A4 induction in vitro: 1.5 @ 10 μM fold
[5]
  bioavailability: > 42%
[6]
  Ki: 3.5 µM
[7]
  Ki: 0.46 µM
[8]
  IC50: > 30 µM
[9]; pH 2, simulated gastric fluid, read-out: Equilibrium solubility at pH 2
  solubility thermodynamic: > 1000 µg/mL
[9]; pH 7.4, aqueous buffer, read-out: Equilibrium solubility at pH 7.4
  solubility thermodynamic: 280 µg/mL (≈ 483 µM)
[10]
  half-life: > 40 min
[11]; 10 mg/kg
  bioavailability: 50%
[11]; 30 mg/kg
  bioavailability: 74%
[12]
  IC50: > 30 µM
[13]; daily gavage
  doses with drug-related adverse findings (body weight, bone marrow, spleen, thymus, lymph node, lung): ≥ 30 mg/kg/day
[13]; rat, in vivo
  dose well tolerated: 10 mg/kg/day
[14]; 30 mg/kg bid, 12 days
  anti-tumor efficacy: complete or near complete tumor regression
[14]; 30 mg/kg qd
  anti-tumor efficacy: significant anti-tumor activity
[14]; 55 mg/kg, qd, 12 days
  anti-tumor efficacy: complete or near complete tumor regression
[14]; all dosing regimens
  tolerability, body weight: well tolerated with no overt toxicity and no significant body weight loss
[15]
  IC50: > 10 µM
[16]; CD-1 mouse, CEP-37440 as amorphous HCl salt
  Mouse bioavailability: 102%
[16]; Scid, mouse, in vivo, po
  bioavailability: 99%
[17]
  NOAEL at 4 weeks: 10 mg/kg/day
[18]
  Ki: 2 µM
[19]
  Ki: 2.46 µM
[20]
  half-life: > 40 min
[21]; 40 days following cessation of treatment
  mice with sustained tumor regressions, no tumor re-emergence: 100%
[21]; [31]
  animals with sustained complete tumor regression: 100%
  tolerability, body weight: well tolerated with no overt toxicity and no significant body weight loss
[22]; 30 mg/kg bid, 28-day period
  incidence of partial tumor regressions: 20%
[22]; 55 mg/kg bid, 28-day period
  incidence of partial tumor regressions: 30%
[22]; 28-day period
  anti-tumor efficacy: tumor stasis
[22]; all dosing regimens
  tolerability: well-tolerated with no morbidity or mortality observed
[22]; no effect on total FAK expression levels
  tumor pharmacodynamic inhibition of FAK activation: clear tumor pharmacodynamic effect for inhibition of FAK activation
[23]; 36 day period, oral
  incidence of complete tumor regressions: 10%
[23]; 36 day period, oral, equivalent doses of both compounds
  tumor growth inhibition (TGI): 55%
[23]; all dosing regimens
  tolerability, body weight: well tolerated with no overt toxicity or significant body weight loss observed
[24]; 30 mg/kg bid, day 28
  TGI: 60%
[24]; 55 mg/kg bid, day 28
  TGI: 80%
  incidence of complete tumor regressions: 30%
  incidence of partial tumor regressions: 30%
  incidence of tumor regressions: 60%
[24]; mouse, in vivo
  tolerability, body weight: well tolerated, with no overt toxicity or significant body weight loss observed
[25]
  Papp: 1.26 ×10⁻⁶ cm/s
[26]
  Ki: 5.2 µM
[27]
  IC50: > 20 µM
[28]
  Protein binding: 85 % bound
[29]
  IC50: > 30 µM
